Assay results from PubChem BioAssay AID248 (DTP/NCI, 2004).
Several values for one entry are separate records, joined by “and”; a condition that tells them apart may be missing. Equal values may be shown once. Inconclusive results and toxic doses are left out.

Tested on: L1210 leukemia ip in BDF1 mice, survival T/C
Assay: NCI In Vivo Anticancer Drug Screen. Data for tumor model L1210 Leukemia (intraperitoneal) in B6D2F1 (BDF1) mice
Conditions: endpoint: mean survival time, higher = longer survival
Outline: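 Antitumor effect is assessed in tumor-bearing animals. Survival in the compound arm is compared with a vehicle-dosed control arm and expressed as their quotient.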

OC(CBr)C(O)C(O)C(O)CBr (configuration not stated)
T/C (dose: 15.6 mg/kg/injection, schedule: Q03HX008 (ip), vehicle: carboxymethylcellulose (CMC)): 90 % of control | T/C (dose: 15.6 mg/kg/injection, schedule: Q03HX024 (ip), vehicle: carboxymethylcellulose (CMC)): 91 % of control | T/C (dose: 31.2 mg/kg/injection, schedule: Q#A X034 (ip), vehicle: carboxymethylcellulose (CMC)): 99 % of control | T/C (dose: 31.25 mg/kg/injection, schedule: Q01DX Z (ip), vehicle: carboxymethylcellulose (CMC)): 94 % of control | T/C (dose: 31.3 mg/kg/injection, schedule: Q03HX008 (ip), vehicle: carboxymethylcellulose (CMC)): 96 % of control | T/C (dose: 31.3 mg/kg/injection, schedule: Q03HX024 (ip), vehicle: carboxymethylcellulose (CMC)): 93 % of control | T/C (dose: 62.5 mg/kg/injection, schedule: Q01DX001 (ip), vehicle: carboxymethylcellulose (CMC)): 101 % of control | T/C (dose: 62.5 mg/kg/injection, schedule: Q01DX009 (ip), vehicle: carboxymethylcellulose (CMC)): 104 % of control | T/C (dose: 62.5 mg/kg/injection, schedule: Q01DX017 (ip), vehicle: carboxymethylcellulose (CMC)): 98 % of control | T/C (dose: 62.5 mg/kg/injection, schedule: Q03HX008 (ip), vehicle: carboxymethylcellulose (CMC)): 97 % of control and 98 % of control | T/C (dose: 62.5 mg/kg/injection, schedule: Q03HX024 (ip), vehicle: carboxymethylcellulose (CMC)): 87 % of control | T/C (dose: 62.5 mg/kg/injection, schedule: Q#A X034 (ip), vehicle: carboxymethylcellulose (CMC)): 95 % of control | T/C (dose: 63.0 mg/kg/injection, schedule: Q01DX Z (ip), vehicle: carboxymethylcellulose (CMC)): 103 % of control and 94 % of control | T/C (dose: 71.0 mg/kg/injection, schedule: Q01DX009 (oral), vehicle: carboxymethylcellulose (CMC)): 97 % of control | T/C (dose: 100.0 mg/kg/injection, schedule: Q01DX001 (ip), vehicle: saline): 98 % of control | T/C (dose: 100.0 mg/kg/injection, schedule: Q01DX009 (ip), vehicle: other): 103 % of control | T/C (dose: 106.0 mg/kg/injection, schedule: Q01DX009 (ip), vehicle: saline): 100 % of control | T/C (dose: 107.0 mg/kg/injection, schedule: Q## X006 (oral), vehicle: carboxymethylcellulose (CMC)): 94 % of control | T/C (dose: 120.0 mg/kg/injection, schedule: Q01DX001 (ip), vehicle: carboxymethylcellulose (CMC)): 97 % of control | T/C (dose: 125.0 mg/kg/injection, schedule: Q01DX001 (ip), vehicle: carboxymethylcellulose (CMC)): 95 % of control and 92 % of control | T/C (dose: 125.0 mg/kg/injection, schedule: Q01DX009 (ip), vehicle: carboxymethylcellulose (CMC)): 104 % of control | T/C (dose: 125.0 mg/kg/injection, schedule: Q01DX015 (ip), vehicle: saline): 102 % of control | T/C (dose: 125.0 mg/kg/injection, schedule: Q01DX Z (ip), vehicle: carboxymethylcellulose (CMC)): 98 % of control and 92 % of control | T/C (dose: 125.0 mg/kg/injection, schedule: Q02DX005 (ip), vehicle: carboxymethylcellulose (CMC)): 100 % of control | T/C (dose: 125.0 mg/kg/injection, schedule: Q02DX008 (ip), vehicle: carboxymethylcellulose (CMC)): 95 % of control | T/C (dose: 125.0 mg/kg/injection, schedule: Q03HX008 (ip), vehicle: carboxymethylcellulose (CMC)): 98 % of control | T/C (dose: 125.0 mg/kg/injection, schedule: Q03HX024 (ip), vehicle: carboxymethylcellulose (CMC)): 105 % of control | T/C (dose: 125.0 mg/kg/injection, schedule: Q04DX003 (ip), vehicle: carboxymethylcellulose (CMC)): 87 % of control | T/C (dose: 160.0 mg/kg/injection, schedule: Q01DX009 (ip), vehicle: saline): 102 % of control | T/C (dose: 160.0 mg/kg/injection, schedule: Q## X006 (oral), vehicle: carboxymethylcellulose (CMC)): 95 % of control | T/C (dose: 177.0 mg/kg/injection, schedule: Q01DX009 (ip), vehicle: acetone): 113 % of control | T/C (dose: 200.0 mg/kg/injection, schedule: Q01DX001 (ip), vehicle: other): 97 % of control | T/C (dose: 200.0 mg/kg/injection, schedule: Q01DX001 (ip), vehicle: saline): 96 % of control | T/C (dose: 200.0 mg/kg/injection, schedule: Q01DX009 (ip), vehicle: other): 105 % of control | T/C (dose: 240.0 mg/kg/injection, schedule: Q01DX009 (ip), vehicle: saline): 104 % of control | T/C (dose: 240.0 mg/kg/injection, schedule: Q## X003 (oral), vehicle: carboxymethylcellulose (CMC)): 96 % of control | T/C (dose: 250.0 mg/kg/injection, schedule: Q01DX001 (ip), vehicle: carboxymethylcellulose (CMC)): 95 % of control and 104 % of control | T/C (dose: 250.0 mg/kg/injection, schedule: Q01DX009 (ip), vehicle: carboxymethylcellulose (CMC)): 98 % of control | T/C (dose: 250.0 mg/kg/injection, schedule: Q01DX015 (ip), vehicle: saline): 110 % of control | T/C (dose: 250.0 mg/kg/injection, schedule: Q01DX Z (ip), vehicle: carboxymethylcellulose (CMC)): 93 % of control and 106 % of control | T/C (dose: 250.0 mg/kg/injection, schedule: Q02DX005 (ip), vehicle: carboxymethylcellulose (CMC)): 95 % of control | T/C (dose: 250.0 mg/kg/injection, schedule: Q04DX003 (ip), vehicle: carboxymethylcellulose (CMC)): 97 % of control | T/C (dose: 250.0 mg/kg/injection, schedule: Q#A X034 (ip), vehicle: carboxymethylcellulose (CMC)): 98 % of control | T/C (dose: 266.0 mg/kg/injection, schedule: Q01DX001 (ip), vehicle: acetone): 189 % of control | T/C (dose: 266.0 mg/kg/injection, schedule: Q01DX001 (ip), vehicle: saline): 102 % of control | T/C (dose: 266.0 mg/kg/injection, schedule: Q01DX009 (ip), vehicle: acetone): 110 % of control | T/C (dose: 266.0 mg/kg/injection, schedule: Q04DX003 (ip), vehicle: acetone): 108 % of control | T/C (dose: 266.0 mg/kg/injection, schedule: Q04DX003 (ip), vehicle: saline): 100 % of control and 98 % of control | T/C (dose: 266.0 mg/kg/injection, schedule: Q08DX002 (ip), vehicle: acetone): 102 % of control | T/C (dose: 266.0 mg/kg/injection, schedule: Q08DX002 (ip), vehicle: saline): 100 % of control | T/C (dose: 360.0 mg/kg/injection, schedule: Q01DX009 (ip), vehicle: saline): 104 % of control | T/C (dose: 400.0 mg/kg/injection, schedule: Q01DX001 (ip), vehicle: acetone): 110 % of control | T/C (dose: 400.0 mg/kg/injection, schedule: Q01DX001 (ip), vehicle: other): 105 % of control | T/C (dose: 400.0 mg/kg/injection, schedule: Q01DX001 (ip), vehicle: saline): 101 % of control and 104 % of control | T/C (dose: 400.0 mg/kg/injection, schedule: Q01DX009 (ip), vehicle: acetone): 113 % of control | T/C (dose: 400.0 mg/kg/injection, schedule: Q01DX009 (ip), vehicle: other): 97 % of control | T/C (dose: 400.0 mg/kg/injection, schedule: Q04DX003 (ip), vehicle: acetone): 112 % of control | T/C (dose: 400.0 mg/kg/injection, schedule: Q04DX003 (ip), vehicle: saline): 102 % of control | T/C (dose: 400.0 mg/kg/injection, schedule: Q08DX002 (ip), vehicle: acetone): 103 % of control | T/C (dose: 400.0 mg/kg/injection, schedule: Q08DX002 (ip), vehicle: saline): 102 % of control | T/C (dose: 480.0 mg/kg/injection, schedule: Q01DX009 (sc), vehicle: carboxymethylcellulose (CMC)): 93 % of control | T/C (dose: 480.0 mg/kg/injection, schedule: Q## X008 (ip), vehicle: carboxymethylcellulose (CMC)): 94 % of control | T/C (dose: 500.0 mg/kg/injection, schedule: Q01DX001 (ip), vehicle: carboxymethylcellulose (CMC)): 96 % of control and 100 % of control and 93 % of control | T/C (dose: 500.0 mg/kg/injection, schedule: Q01DX009 (ip), vehicle: carboxymethylcellulose (CMC)): 105 % of control | T/C (dose: 500.0 mg/kg/injection, schedule: Q01DX015 (ip), vehicle: saline): 110 % of control | T/C (dose: 500.0 mg/kg/injection, schedule: Q01DX Z (ip), vehicle: carboxymethylcellulose (CMC)): 94 % of control and 104 % of control | T/C (dose: 500.0 mg/kg/injection, schedule: Q02DX005 (ip), vehicle: carboxymethylcellulose (CMC)): 108 % of control | T/C (dose: 500.0 mg/kg/injection, schedule: Q04DX003 (ip), vehicle: carboxymethylcellulose (CMC)): 95 % of control | T/C (dose: 540.0 mg/kg/injection, schedule: Q01DX009 (ip), vehicle: saline): 111 % of control | T/C (dose: 600.0 mg/kg/injection, schedule: Q01DX001 (ip), vehicle: acetone): 100 % of control | T/C (dose: 600.0 mg/kg/injection, schedule: Q01DX001 (ip), vehicle: saline): 104 % of control | T/C (dose: 600.0 mg/kg/injection, schedule: Q01DX009 (ip), vehicle: acetone): 113 % of control | T/C (dose: 600.0 mg/kg/injection, schedule: Q04DX003 (ip), vehicle: acetone): 123 % of control | T/C (dose: 600.0 mg/kg/injection, schedule: Q04DX003 (ip), vehicle: saline): 102 % of control | T/C (dose: 600.0 mg/kg/injection, schedule: Q08DX002 (ip), vehicle: acetone): 103 % of control | T/C (dose: 600.0 mg/kg/injection, schedule: Q08DX002 (ip), vehicle: saline): 102 % of control | T/C (dose: 800.0 mg/kg/injection, schedule: Q01DX001 (ip), vehicle: other): 109 % of control | T/C (dose: 900.0 mg/kg/injection, schedule: Q01DX001 (ip), vehicle: acetone): 108 % of control | T/C (dose: 900.0 mg/kg/injection, schedule: Q01DX001 (ip), vehicle: saline): 105 % of control | T/C (dose: 900.0 mg/kg/injection, schedule: Q04DX003 (ip), vehicle: acetone): 100 % of control | T/C (dose: 900.0 mg/kg/injection, schedule: Q04DX003 (ip), vehicle: saline): 105 % of control | T/C (dose: 900.0 mg/kg/injection, schedule: Q08DX002 (ip), vehicle: acetone): 100 % of control | T/C (dose: 900.0 mg/kg/injection, schedule: Q08DX002 (ip), vehicle: saline): 94 % of control | T/C (dose: 1000.0 mg/kg/injection, schedule: Q01DX001 (ip), vehicle: carboxymethylcellulose (CMC)): 100 % of control and 104 % of control and 94 % of control | T/C (dose: 1000.0 mg/kg/injection, schedule: Q01DX015 (ip), vehicle: saline): 121 % of control | T/C (dose: 1000.0 mg/kg/injection, schedule: Q04DX003 (ip), vehicle: carboxymethylcellulose (CMC)): 113 % of control | T/C (dose: 1440.0 mg/kg/injection, schedule: Q## X003 (oral), vehicle: carboxymethylcellulose (CMC)): 96 % of control
